This passage reports relative viability results from the supplement of paper PMC10307832.

Holding throughout (test): relative viability (nuclei count vs DMSO), 5 days (fraction); higher = more cells survive
Compound in experiment [1]: CN(c1ncccc1CNc1nc(Nc2ccc3c(c2)CC(=O)N3)ncc1C(F)(F)F)S(C)(=O)=O + COc1cc2c(Oc3ccc(NC(=O)C4(C(=O)Nc5ccc(F)cc5)CC4)cc3F)ccnc2cc1OCCCN1CCOCC1 [Foretinib] (partner 0.25 µM)
In a few lines: (§1)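 Five library-drug doses in √10 steps were combined with a fixed anchor-drug dose, or a single drug was given alone, by pin tool to lung cancer cell lines in 1536-well plates the day after seeding. Nuclei were stained and counted after 5 days. Relative viability is the nuclei count in treated wells over that in vehicle wells, taken as the median of duplicate plates.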

Compound in experiment [2]: CN(c1ncccc1CNc1nc(Nc2ccc3c(c2)CC(=O)N3)ncc1C(F)(F)F)S(C)(=O)=O + CS(=O)(=O)N1CCN(Cc2cc3nc(-c4cccc5[nH]ncc45)nc(N4CCOCC4)c3s2)CC1 [Pictilisib] (partner 1 µM)
The method, boiled down: as §1

Compound in experiment [3]: CN(c1ncccc1CNc1nc(Nc2ccc3c(c2)CC(=O)N3)ncc1C(F)(F)F)S(C)(=O)=O + NC(=O)Nc1cc(-c2cccc(F)c2)sc1C(=O)N[C@H]1CCCNC1 [AZD7762] (partner 0.2 µM)
In a few lines:
as §1

Compound in experiment [4]: CN(c1ncccc1CNc1nc(Nc2ccc3c(c2)CC(=O)N3)ncc1C(F)(F)F)S(C)(=O)=O + O=C(CCCCCCC(=O)Nc1ccccc1)NO [Vorinostat] (partner 1 µM)
The method, boiled down: as §1

In the case of LOU-NH91, the relative viability in experiment [1] (first compound 0.01 µM) turned out to be 0.945; in experiment [1] (first compound 0.03162 µM), 1.02; in experiment [1] (first compound 0.1 µM), 0.88; in experiment [1] (first compound 0.3162 µM), 1.04; in experiment [1] (first compound 1 µM) it was 0.999; in experiment [2] (first compound 0.01 µM), 0.519. The relative viability in experiment [2] (first compound 0.03162 µM) was found to be 0.548; in experiment [2] (first compound 0.1 µM), 0.504; in experiment [2] (first compound 0.3162 µM) it was 0.551; in experiment [2] (first compound 1 µM), 0.575; in experiment [3] (first compound 0.01 µM), 0.793; in experiment [3] (first compound 0.03162 µM), 0.754. In addition, the relative viability in experiment [3] (first compound 0.1 µM) is 0.735; in experiment [3] (first compound 0.3162 µM) it was 0.746; in experiment [3] (first compound 1 µM), 0.79; in experiment [4] (first compound 0.01 µM), 0.957; in experiment [4] (first compound 0.03162 µM), 0.99; in experiment [4] (first compound 0.1 µM), 0.852. Also, the figures for the relative viability in experiment [4] (first compound 0.3162 µM) and in experiment [4] (first compound 1 µM) were 0.907 and 0.976, respectively.

As for NCI-H2347, the relative viability in experiment [1] (first compound 0.01 µM) came out at 0.612; in experiment [1] (first compound 0.03162 µM) it was 0.992; in experiment [1] (first compound 0.1 µM) it was 1.1; in experiment [1] (first compound 0.3162 µM), 0.555; in experiment [1] (first compound 1 µM) it was 0.616; in experiment [2] (first compound 0.01 µM) it was 0.609. Also, the relative viability in experiment [2] (first compound 0.03162 µM) was 0.614; in experiment [2] (first compound 0.1 µM), 0.74; in experiment [2] (first compound 0.3162 µM), 0.919; in experiment [2] (first compound 1 µM), 0.362; in experiment [3] (first compound 0.01 µM), 0.818; in experiment [3] (first compound 0.03162 µM), 0.654. Besides, the relative viability in experiment [3] (first compound 0.1 µM) stood at 0.782; in experiment [3] (first compound 0.3162 µM), 0.733; in experiment [3] (first compound 1 µM), 0.685; in experiment [4] (first compound 0.01 µM), 0.584; in experiment [4] (first compound 0.03162 µM), 0.615; in experiment [4] (first compound 0.1 µM) it was 0.527. Besides, the relative viability in experiment [4] (first compound 0.3162 µM) was 0.54; in experiment [4] (first compound 1 µM) it was 0.413.

As for NCI-H2126, the relative viability in experiment [1] (first compound 0.01 µM) was 1.34; in experiment [1] (first compound 0.03162 µM), 1.13; in experiment [1] (first compound 0.1 µM) it was 1.06; in experiment [1] (first compound 0.3162 µM), 1.19; in experiment [1] (first compound 1 µM), 1.08; in experiment [2] (first compound 0.01 µM) it was 0.495. The relative viability in experiment [2] (first compound 0.03162 µM) came to 0.469; in experiment [2] (first compound 0.1 µM), 0.452; in experiment [2] (first compound 0.3162 µM), 0.533; in experiment [2] (first compound 1 µM), 0.459; in experiment [3] (first compound 0.01 µM), 1.03; in experiment [3] (first compound 0.03162 µM) it was 1.08. The relative viability in experiment [3] (first compound 0.1 µM) worked out at 0.961; in experiment [3] (first compound 0.3162 µM), 0.904; in experiment [3] (first compound 1 µM) it was 0.902; in experiment [4] (first compound 0.01 µM), 0.76; in experiment [4] (first compound 0.03162 µM), 0.845; in experiment [4] (first compound 0.1 µM), 0.642. The relative viability turned out to be 0.831 in experiment [4] (first compound 0.3162 µM) and 0.701 in experiment [4] (first compound 1 µM).

Regarding HCC-827, the relative viability in experiment [1] (first compound 0.01 µM) is 0.985; in experiment [1] (first compound 0.03162 µM) it was 1.05; in experiment [1] (first compound 0.1 µM), 1.15; in experiment [1] (first compound 0.3162 µM) it was 1.04; in experiment [1] (first compound 1 µM), 1.05; in experiment [2] (first compound 0.01 µM), 0.878. Moreover, the relative viability in experiment [2] (first compound 0.03162 µM) came out at 1.08; in experiment [2] (first compound 0.1 µM), 1.09; in experiment [2] (first compound 0.3162 µM) it was 1.15; in experiment [2] (first compound 1 µM), 1.07; in experiment [3] (first compound 0.01 µM), 0.202; in experiment [3] (first compound 0.03162 µM), 0.227. The relative viability in experiment [3] (first compound 0.1 µM) came out at 0.25; in experiment [3] (first compound 0.3162 µM), 0.284; in experiment [3] (first compound 1 µM) it was 0.331; in experiment [4] (first compound 0.01 µM), 0.923; in experiment [4] (first compound 0.03162 µM), 0.861; in experiment [4] (first compound 0.1 µM) it was 0.806. The relative viability in experiment [4] (first compound 0.3162 µM) came to 0.954; in experiment [4] (first compound 1 µM), 0.783.

For the cell line NCI-H3122, the relative viability is 1.01 in experiment [1] (first compound 0.01 µM); 0.876 in experiment [1] (first compound 0.03162 µM); 0.916 in experiment [1] (first compound 0.1 µM); 0.902 in experiment [1] (first compound 0.3162 µM); 0.929 in experiment [1] (first compound 1 µM); 0.599 in experiment [2] (first compound 0.01 µM). In addition, the relative viability in experiment [2] (first compound 0.03162 µM) stood at 0.673; in experiment [2] (first compound 0.1 µM) it was 0.627; in experiment [2] (first compound 0.3162 µM) it was 0.572; in experiment [2] (first compound 1 µM), 0.584; in experiment [3] (first compound 0.01 µM), 1.04; in experiment [3] (first compound 0.03162 µM), 1.09. The relative viability was 0.981 in experiment [3] (first compound 0.1 µM); 0.978 in experiment [3] (first compound 0.3162 µM); 1.03 in experiment [3] (first compound 1 µM); 1.03 in experiment [4] (first compound 0.01 µM); 0.963 in experiment [4] (first compound 0.03162 µM); 1.04 in experiment [4] (first compound 0.1 µM). Moreover, the relative viability turned out to be 1 in experiment [4] (first compound 0.3162 µM) and 1.06 in experiment [4] (first compound 1 µM).

On to HOP-62, for which the relative viability in experiment [1] (first compound 0.01 µM) came to 1.04; in experiment [1] (first compound 0.03162 µM), 1.16; in experiment [1] (first compound 0.1 µM) it was 0.958; in experiment [1] (first compound 0.3162 µM), 1.02; in experiment [1] (first compound 1 µM), 1.03; in experiment [2] (first compound 0.01 µM), 0.784. Also, the relative viability in experiment [2] (first compound 0.03162 µM) was found to be 0.899; in experiment [2] (first compound 0.1 µM), 0.793; in experiment [2] (first compound 0.3162 µM), 0.853; in experiment [2] (first compound 1 µM) it was 0.643; in experiment [3] (first compound 0.01 µM) it was 0.742; in experiment [3] (first compound 0.03162 µM), 0.776. Moreover, the relative viability in experiment [3] (first compound 0.1 µM) was found to be 0.531; in experiment [3] (first compound 0.3162 µM), 0.75; in experiment [3] (first compound 1 µM) it was 0.628; in experiment [4] (first compound 0.01 µM), 0.759; in experiment [4] (first compound 0.03162 µM) it was 0.769; in experiment [4] (first compound 0.1 µM), 0.574. Further, the relative viability worked out at 0.732 in experiment [4] (first compound 0.3162 µM) and 0.596 in experiment [4] (first compound 1 µM).
